Publication PMC6478789, “A chemical toolbox for the study of bromodomains and epigenetic signaling” (Nature Communications, 2019)
Like-named read-outs stand apart in the source and are kept apart here. Blank lines part the entries; values can stand above or below the molecule they belong to.

Columns and labels:
GPRK5 = target: T1, GPRK5 (Homo sapiens, UniProt P34947); test: Temperature shift assay (protein kinases); format: binding; settings: 10 μM probe; average of three measurements
T1 construct: Recombinant protein domains (bromodomain or kinases) at a concentration of 2 μM
T1 sequence (P34947 186-448 limits assumed, species assumed): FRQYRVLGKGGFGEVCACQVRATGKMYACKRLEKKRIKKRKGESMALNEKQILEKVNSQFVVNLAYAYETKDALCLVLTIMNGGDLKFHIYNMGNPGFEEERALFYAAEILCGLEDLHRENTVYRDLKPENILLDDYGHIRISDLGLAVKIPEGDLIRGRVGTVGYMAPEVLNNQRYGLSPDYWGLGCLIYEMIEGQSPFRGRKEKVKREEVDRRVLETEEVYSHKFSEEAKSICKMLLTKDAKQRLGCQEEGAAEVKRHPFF
Procedure: (§1) Temperature shift assays have been described by Fedorov et al.[46]. Recombinant protein domains (bromodomain or kinases) at a concentration of 2 μM in 10 mM HEPES, pH 7.5, and 500 mM NaCl were mixed with 10 μM of chemical probes. Temperature-dependent protein unfolding profiles were measured using a Real-Time PCR Mx3005p machine (Stratagene).

CSNK1D = target: T2, CSNK1D (Homo sapiens, UniProt P48730); test: Temperature shift assay (protein kinases); format: binding; settings: 10 μM probe; average of three measurements
T2 construct: Recombinant protein domains (bromodomain or kinases) at a concentration of 2 μM
T2 sequence (P48730 9-277 limits assumed): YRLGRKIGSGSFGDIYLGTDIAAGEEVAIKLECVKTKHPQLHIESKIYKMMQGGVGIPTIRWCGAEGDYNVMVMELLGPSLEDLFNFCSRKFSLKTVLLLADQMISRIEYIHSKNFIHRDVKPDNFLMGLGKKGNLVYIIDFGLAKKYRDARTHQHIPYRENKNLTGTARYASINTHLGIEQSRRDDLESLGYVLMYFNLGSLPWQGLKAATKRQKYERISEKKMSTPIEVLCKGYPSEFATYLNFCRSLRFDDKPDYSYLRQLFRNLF
Procedure: as §1

CASK = target: T3, CASK (Homo sapiens, UniProt O14936); test: Temperature shift assay (protein kinases); format: binding; settings: 10 μM probe; average of three measurements
T3 construct: Recombinant protein domains (bromodomain or kinases) at a concentration of 2 μM
T3 sequence (O14936 12-276 limits assumed): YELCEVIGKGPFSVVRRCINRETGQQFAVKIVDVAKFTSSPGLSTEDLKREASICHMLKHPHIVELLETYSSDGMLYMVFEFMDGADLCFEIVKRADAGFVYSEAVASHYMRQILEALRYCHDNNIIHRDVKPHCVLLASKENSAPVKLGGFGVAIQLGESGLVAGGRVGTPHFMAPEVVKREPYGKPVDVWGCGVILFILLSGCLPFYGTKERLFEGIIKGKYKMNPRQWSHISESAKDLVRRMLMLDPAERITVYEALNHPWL
Procedure: as §1

PIM1 = target: T4, PIM1 (Homo sapiens, UniProt P11309); test: Temperature shift assay (protein kinases); format: binding; settings: 10 μM probe; average of three measurements
T4 construct: Recombinant protein domains (bromodomain or kinases) at a concentration of 2 μM
T4 sequence (P11309 38-290 limits assumed, species assumed): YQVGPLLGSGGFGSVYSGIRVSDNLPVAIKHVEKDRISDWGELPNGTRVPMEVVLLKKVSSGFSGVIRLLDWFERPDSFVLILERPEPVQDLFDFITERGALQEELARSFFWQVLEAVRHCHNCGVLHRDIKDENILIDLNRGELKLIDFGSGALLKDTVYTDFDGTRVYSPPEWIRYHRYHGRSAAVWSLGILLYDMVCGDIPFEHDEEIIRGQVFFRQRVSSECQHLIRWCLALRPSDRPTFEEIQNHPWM
Procedure: as §1

FES = target: T5, FES (Homo sapiens, UniProt P07332); test: Temperature shift assay (protein kinases); format: binding; settings: 10 μM probe; average of three measurements
T5 construct: Recombinant protein domains (bromodomain or kinases) at a concentration of 2 μM
T5 sequence (P07332 561-822 limits assumed, species assumed): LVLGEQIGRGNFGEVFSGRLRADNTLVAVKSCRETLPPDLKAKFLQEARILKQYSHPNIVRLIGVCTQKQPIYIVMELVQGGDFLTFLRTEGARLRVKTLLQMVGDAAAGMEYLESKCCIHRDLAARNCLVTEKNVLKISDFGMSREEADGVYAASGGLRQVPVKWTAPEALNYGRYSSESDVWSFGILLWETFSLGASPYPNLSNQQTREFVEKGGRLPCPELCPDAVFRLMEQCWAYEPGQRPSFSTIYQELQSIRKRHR
Procedure: as §1

MERTK = target: T6, MERTK (Homo sapiens, UniProt Q12866); test: Temperature shift assay (protein kinases); format: binding; settings: 10 μM probe; average of three measurements
T6 construct: Recombinant protein domains (bromodomain or kinases) at a concentration of 2 μM
T6 sequence (Q12866 587-858 limits assumed): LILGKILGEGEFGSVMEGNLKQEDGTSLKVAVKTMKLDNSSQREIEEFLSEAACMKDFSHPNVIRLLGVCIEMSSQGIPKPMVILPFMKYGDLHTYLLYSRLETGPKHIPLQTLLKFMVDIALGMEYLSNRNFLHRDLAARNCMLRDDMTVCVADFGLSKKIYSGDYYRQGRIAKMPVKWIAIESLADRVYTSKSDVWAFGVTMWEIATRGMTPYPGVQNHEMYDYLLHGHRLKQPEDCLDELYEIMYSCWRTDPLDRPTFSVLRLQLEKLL
Procedure: as §1

AURKB = target: T7, AURKB (Homo sapiens, UniProt Q96GD4); test: Temperature shift assay (protein kinases); format: binding; settings: 10 μM probe; average of three measurements
T7 construct: Recombinant protein domains (bromodomain or kinases) at a concentration of 2 μM
T7 sequence (Q96GD4 77-327 limits assumed, species assumed): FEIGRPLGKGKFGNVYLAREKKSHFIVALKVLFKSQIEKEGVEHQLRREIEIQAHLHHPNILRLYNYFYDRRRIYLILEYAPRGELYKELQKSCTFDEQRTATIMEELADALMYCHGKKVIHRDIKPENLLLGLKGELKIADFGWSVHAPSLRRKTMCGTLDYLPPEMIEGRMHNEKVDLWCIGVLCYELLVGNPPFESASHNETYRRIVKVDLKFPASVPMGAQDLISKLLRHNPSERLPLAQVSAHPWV
Procedure: as §1

DYRK1A = target: T8, DYRK1A (Homo sapiens, UniProt Q13627); test: Temperature shift assay (protein kinases); format: binding; settings: 10 μM probe; average of three measurements
T8 construct: Recombinant protein domains (bromodomain or kinases) at a concentration of 2 μM
Procedure: as §1

BRAF = target: T9, BRAF (Homo sapiens, UniProt P15056); test: Temperature shift assay (protein kinases); format: binding; settings: 10 μM probe; average of three measurements
T9 construct: Recombinant protein domains (bromodomain or kinases) at a concentration of 2 μM
T9 sequence (P15056 457-717 limits assumed, species assumed): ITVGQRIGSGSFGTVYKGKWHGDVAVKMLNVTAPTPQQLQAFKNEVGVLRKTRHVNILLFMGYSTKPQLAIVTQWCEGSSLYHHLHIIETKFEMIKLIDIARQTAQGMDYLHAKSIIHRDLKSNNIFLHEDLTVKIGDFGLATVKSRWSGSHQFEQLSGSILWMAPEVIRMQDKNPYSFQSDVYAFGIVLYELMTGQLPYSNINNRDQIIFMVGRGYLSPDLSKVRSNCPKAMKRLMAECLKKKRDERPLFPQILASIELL
Procedure: as §1

DAPK3 = target: T10, DAPK3 (Homo sapiens, UniProt O43293); test: Temperature shift assay (protein kinases); format: binding; settings: 10 μM probe; average of three measurements
T10 construct: Recombinant protein domains (bromodomain or kinases) at a concentration of 2 μM
T10 sequence (O43293 13-275 limits assumed, species assumed): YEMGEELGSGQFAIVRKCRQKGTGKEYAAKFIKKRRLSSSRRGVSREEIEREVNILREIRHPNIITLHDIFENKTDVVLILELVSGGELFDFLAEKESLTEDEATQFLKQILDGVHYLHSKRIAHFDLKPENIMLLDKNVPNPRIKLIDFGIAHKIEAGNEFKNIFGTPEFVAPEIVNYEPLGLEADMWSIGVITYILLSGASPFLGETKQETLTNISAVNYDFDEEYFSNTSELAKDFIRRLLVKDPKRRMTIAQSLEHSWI
Procedure: as §1

BMX = target: T11, BMX (Homo sapiens, UniProt P51813); test: Temperature shift assay (protein kinases); format: binding; settings: 10 μM probe; average of three measurements
T11 construct: Recombinant protein domains (bromodomain or kinases) at a concentration of 2 μM
T11 sequence (P51813 417-675 limits assumed, species assumed): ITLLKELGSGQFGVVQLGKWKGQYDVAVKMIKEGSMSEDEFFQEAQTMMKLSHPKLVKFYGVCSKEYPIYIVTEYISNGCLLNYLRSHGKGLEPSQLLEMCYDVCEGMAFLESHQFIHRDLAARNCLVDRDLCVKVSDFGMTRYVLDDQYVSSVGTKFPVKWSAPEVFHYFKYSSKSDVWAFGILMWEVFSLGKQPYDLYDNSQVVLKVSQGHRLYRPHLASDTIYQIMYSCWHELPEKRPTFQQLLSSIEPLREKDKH
Procedure: as §1

BRDT(2) = BRDT(2) (Homo sapiens, UniProt Q58F21); test: BROMOscan ligand-binding assay
Excerpt: (§2) BROMOscan is a binding assay based on the well-known KINOMEscan technology. This assay measures the binding of a DNA-tagged bromodomain to an immobilized BRD ligand. If an inhibitor is present, it will compete with the bromodomain binding to the immobilized ligand, resulting in reduction of a quantitative PCR (qPCR) signal in a dose-dependent manner.

BRD4(1) = BRD4(1) (Homo sapiens, UniProt O60885); test: BROMOscan ligand-binding assay
Excerpt: as §2

BRPF1 = target: T12, BRPF1 (Homo sapiens, UniProt P55201); test: BROMOscan ligand-binding assay
T12 sequence (P55201 628-732 limits assumed): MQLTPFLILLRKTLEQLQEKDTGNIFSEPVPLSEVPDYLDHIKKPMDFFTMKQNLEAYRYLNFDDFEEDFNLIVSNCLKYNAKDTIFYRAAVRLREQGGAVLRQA
Excerpt: as §2

CREBBP = CREBBP (Homo sapiens, UniProt Q92793); test: BROMOscan ligand-binding assay
Chain of CREBBP (Q92793 1085-1192 limits assumed): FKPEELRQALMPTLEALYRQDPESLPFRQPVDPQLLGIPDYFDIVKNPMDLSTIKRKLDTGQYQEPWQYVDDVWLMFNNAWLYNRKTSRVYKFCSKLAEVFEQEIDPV
Excerpt: as §2

TAF1L(2) = target: T13, TAF1L(2) (Homo sapiens, UniProt Q8IZX4); test: BROMOscan ligand-binding assay
T13 sequence (Q8IZX4 1517-1626 limits assumed): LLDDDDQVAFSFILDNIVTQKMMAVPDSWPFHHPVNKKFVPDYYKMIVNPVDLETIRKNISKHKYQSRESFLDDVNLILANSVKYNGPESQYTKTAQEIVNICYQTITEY
Excerpt: as §2

WDR9(2) = WDR9(2) (Homo sapiens, UniProt Q9NSI6); test: BROMOscan ligand-binding assay
Chain of WDR9(2) (Q9NSI6 1313-1418 limits assumed): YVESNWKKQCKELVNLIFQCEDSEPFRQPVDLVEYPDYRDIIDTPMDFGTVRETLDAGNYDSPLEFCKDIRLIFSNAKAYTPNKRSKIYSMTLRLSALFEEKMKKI
Excerpt: as §2

BAZ2B = target: T14, BAZ2B (Homo sapiens, UniProt Q9UIF8); test: BROMOscan ligand-binding assay
T14 sequence (Q9UIF8 2060-2164 limits assumed): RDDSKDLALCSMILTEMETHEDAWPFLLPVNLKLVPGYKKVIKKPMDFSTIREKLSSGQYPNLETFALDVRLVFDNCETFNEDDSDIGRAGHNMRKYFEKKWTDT
Excerpt: as §2

TRIM33(PHD,BRD) = target: T15, TRIM33(PHD,BRD) (Homo sapiens, UniProt Q9UPN9); test: BROMOscan ligand-binding assay
T15 sequence (Q9UPN9 882-1087 limits assumed): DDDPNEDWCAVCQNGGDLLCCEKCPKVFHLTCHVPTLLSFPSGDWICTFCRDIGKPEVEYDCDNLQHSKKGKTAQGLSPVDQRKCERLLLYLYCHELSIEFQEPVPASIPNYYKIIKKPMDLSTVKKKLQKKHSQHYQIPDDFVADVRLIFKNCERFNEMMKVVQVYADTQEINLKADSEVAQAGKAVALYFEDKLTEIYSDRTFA
Excerpt: as §2

SMARCA2(iso.A) = SMARCA2(iso.A) (Homo sapiens, UniProt P51531); test: BROMOscan ligand-binding assay
Chain of SMARCA2(iso.A) (P51531 1378-1506 limits assumed): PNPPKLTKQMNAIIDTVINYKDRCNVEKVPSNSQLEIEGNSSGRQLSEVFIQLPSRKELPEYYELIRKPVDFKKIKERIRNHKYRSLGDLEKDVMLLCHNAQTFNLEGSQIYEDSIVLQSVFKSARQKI
Excerpt: as §2

PBRM1(5) = PBRM1(5) (Homo sapiens, UniProt Q86U86); test: BROMOscan ligand-binding assay
Chain of PBRM1(5) (Q86U86 653-763 limits assumed): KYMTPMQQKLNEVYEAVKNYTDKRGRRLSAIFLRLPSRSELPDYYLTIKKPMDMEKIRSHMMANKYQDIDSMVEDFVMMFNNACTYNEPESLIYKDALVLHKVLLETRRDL
Excerpt: as §2

[1] = read-out: KD (BROMOscan), sheet prints no unit (nM)
[2] = KD (BROMOscan), sheet prints no unit (nM)

Structure (SMILES): Cc1cc2c(cc1N1C(=O)c3cccc4c(CCCO)ccc(c34)C1=O)n(C)c(=O)n2C [BAY-299]
- Temperature shift (GPRK5): -0.3 Kelvin
- Temperature shift (CSNK1D): 1.2 Kelvin
- Temperature shift (CASK): -0.1 Kelvin
- Temperature shift (PIM1): -0.2 Kelvin
- Temperature shift (FES): 0.0 Kelvin
- Temperature shift (MERTK): -0.2 Kelvin
- Temperature shift (AURKB): 0.2 Kelvin
- Temperature shift (DYRK1A): -0.5 Kelvin
- Temperature shift (BRAF): 0.1 Kelvin
- Temperature shift (DAPK3): -0.2 Kelvin
- Temperature shift (BMX): 0.3 Kelvin

Structure (SMILES): Cc1noc(C)c1-c1ccc2c(c1)nc(CCc1ccccc1)n2CCN1CCOCC1 [CBP30-298]
- Kd (BRDT(2); BROMOscan Gene Symbol BRDT(2)): 6.8 µM
- Kd (BRD4(1); BROMOscan Gene Symbol BRD4(1)): 0.52 µM
- Kd (BRPF1; BROMOscan Gene Symbol BRPF1): 18 µM
- Kd (CREBBP; BROMOscan Gene Symbol CREBBP): 0.14 µM
- Kd (TAF1L(2); BROMOscan Gene Symbol TAF1L(2)): 17 µM
- Kd (WDR9(2); BROMOscan Gene Symbol WDR9(2)): 30000 nM
- Kd (BAZ2B; BROMOscan Gene Symbol BAZ2B): > 50000 nM
- Kd (BAZ2B; [1]): > 30000 nM
- Kd (TRIM33(PHD,BRD); BROMOscan Gene Symbol TRIM33(PHD,Bromo.)): > 50000 nM
- Kd (TRIM33(PHD,BRD); [1]): > 30000 nM

Structure (SMILES): CCCOc1ccn2c(C(C)=O)cc(-c3ccccc3S(C)(=O)=O)c2c1 [GSK2801]
- Kd (BRDT(2); KD, BROMOscan Gene Symbol BRDT(2)): 67 µM
- Kd (BRD4(1)): 74 µM
- Kd (BRPF1; KD, BROMOscan Gene Symbol BRPF1): 14 µM
- Kd (SMARCA2(iso.A); [2]): > 30000 nM
- Kd (SMARCA2(iso.A); KD, BROMOscan Gene Symbol SMARCA2(iso.A)): > 100000 nM
- Kd (CREBBP; KD, BROMOscan Gene Symbol CREBBP): 21 µM
- Kd (TAF1L(2)): 5.1 µM
- Kd (WDR9(2); [2]): > 30000 nM
- Kd (WDR9(2); KD, BROMOscan Gene Symbol WDR9(2)): > 100000 nM
- Kd (PBRM1(5); [2]): > 30000 nM
- Kd (PBRM1(5); KD, BROMOscan Gene Symbol PBRM1(5)): > 100000 nM
- Kd (TRIM33(PHD,BRD); [2]): > 30000 nM
- Kd (TRIM33(PHD,BRD); KD, BROMOscan Gene Symbol TRIM33(PHD,Bromo.)): > 100000 nM

Structure (SMILES): Cc1nnc2c3ccccc3c(N[C@@H](C)[C@H](c3ccccc3)N(C)C)nn12 [L-Moses]
- Temperature shift (GPRK5): -0.3 Kelvin
- Temperature shift (CSNK1D): 0.6 Kelvin
- Temperature shift (CASK): -0.1 Kelvin
- Temperature shift (PIM1): 2.3 Kelvin
- Temperature shift (FES): -0.2 Kelvin
- Temperature shift (MERTK): 0.0 Kelvin
- Temperature shift (AURKB): 0.4 Kelvin
- Temperature shift (DYRK1A): 0.2 Kelvin
- Temperature shift (BRAF): -0.1 Kelvin
- Temperature shift (DAPK3): 0.2 Kelvin
- Temperature shift (BMX): -0.1 Kelvin

Other lines, results leading:

- Kd (BRDT(2); BROMOscan, BRDT(2)): 33 µM
- Kd (BRD4(1); BROMOscan, BRD4(1)): 46 µM
- Kd (BRPF1; BROMOscan, BRPF1): 43 µM
- Kd (CREBBP; BROMOscan, CREBBP): > 50 µM
- Kd (TAF1L(2); BROMOscan, TAF1L(2)): > 50 µM
- Kd (WDR9(2); BROMOscan, WDR9(2)): > 50000 nM
- Kd (BAZ2B; BAZ2B): > 50000 nM
- Kd (PBRM1(5); BROMOscan, PBRM1(5)): > 50000 nM
- Kd (TRIM33(PHD,BRD); BROMOscan, TRIM33(PHD,Bromo.)): > 50000 nM
Structure (SMILES): Cc1cc(=O)n(C)c2cc(N3C(=O)CC[C@H](NS(=O)(=O)CC(C)C)[C@H]3c3ccc(Cl)cc3)ccc12 [LP-99]

- Kd (BRDT(2); BRDT(2)): > 50 µM
- Kd (BRD4(1); BRD4(1)): 3.3 µM
- Kd (BRPF1; BRPF1): 0.004 µM
- Kd (CREBBP; CREBBP): 13 µM
- Kd (TAF1L(2); TAF1L(2)): 5.5 µM
- Kd (WDR9(2); WDR9(2)): > 50000 nM
- Kd (BAZ2B; BAZ2B): 9400 nM
- Kd (PBRM1(5); PBRM1(5)): 11000 nM
- Kd (TRIM33(PHD,BRD); TRIM33(PHD,Bromo.)): > 50000 nM
Structure (SMILES): COc1cc(C#N)ccc1S(=O)(=O)Nc1ccc2c(c1)cc(C)c(=O)n2C [NI 57]
